Values joined by “and” are separate entries in the source; they are usually repeats but may differ in a detail not shown here. Equal entries are not always repeated. Toxic doses and inconclusive results are not listed. Rule as the data show it: active = T/C of 150% or more; inactive = T/C below 125%.
Test system: L1210 leukemia ip in BDF1 mice, survival T/C
Assay: NCI In Vivo Anticancer Drug Screen. Data for tumor model L1210 Leukemia (intraperitoneal) in B6D2F1 (BDF1) mice
Conditions: endpoint: mean survival time, higher = longer survival
How it was run: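 Transplanted-tumor mice were given test agent; controls received vehicle only. Survival readings from the two groups were divided (treated over control).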

[1] = dose: 100.0 mg/kg/injection, schedule: Q04DX003 (ip), vehicle: saline with Tween-80
[2] = dose: 200.0 mg/kg/injection, schedule: Q04DX003 (ip), vehicle: saline with Tween-80
[3] = dose: 100.0 mg/kg/injection, schedule: Q01DX001 (ip), vehicle: saline with Tween-80
[4] = dose: 100.0 mg/kg/injection, schedule: Q04DX003 (ip), vehicle: saline
[5] = dose: 200.0 mg/kg/injection, schedule: Q04DX003 (ip), vehicle: saline
[6] = dose: 400.0 mg/kg/injection, schedule: Q04DX003 (ip), vehicle: saline
[7] = dose: 50.0 mg/kg/injection, schedule: Q01DX009 (ip), vehicle: saline
[8] = dose: 100.0 mg/kg/injection, schedule: Q01DX009 (ip), vehicle: saline
[9] = dose: 75.0 mg/kg/injection, schedule: Q01DX001 (ip), vehicle: saline

Measured: T/C

CCOC(=O)C(C(C)=O)C(c1cccc(O)c1)C(C(C)=O)C(=O)O (stereo not drawn)
inactive: dose: 25.6 mg/kg/injection, schedule: Q04DX002 (ip), vehicle: saline with Tween-80 95 % of control | dose: 37.5 mg/kg/injection, schedule: Q01DX009 (ip), vehicle: saline with Tween-80 100 % of control | dose: 64.0 mg/kg/injection, schedule: Q04DX002 (ip), vehicle: saline with Tween-80 91 % of control | dose: 75.0 mg/kg/injection, schedule: Q01DX009 (ip), vehicle: saline with Tween-80 91 % of control | [1] 90 % of control | dose: 150.0 mg/kg/injection, schedule: Q01DX009 (ip), vehicle: saline with Tween-80 94 % of control | dose: 160.0 mg/kg/injection, schedule: Q04DX002 (ip), vehicle: saline with Tween-80 87 % of control | [2] 90 % of control

Nc1ccc(CCCCOc2ccccc2)cc1
inactive: dose: 25.0 mg/kg/injection, schedule: Q01DX001 (ip), vehicle: saline with Tween-80 104 % of control | dose: 50.0 mg/kg/injection, schedule: Q01DX001 (ip), vehicle: saline with Tween-80 95 % of control | [3] 98 % of control and 106 % of control

CCCC(=O)CCCCNC(=O)c1ccccc1
inactive: dose: 100.0 mg/kg/injection, schedule: Q04DX002 (ip), vehicle: saline with Tween-80 99 % of control | dose: 200.0 mg/kg/injection, schedule: Q04DX002 (ip), vehicle: saline with Tween-80 89 % of control

CC(C)(C)c1ccc(SC(=O)NCCCl)cc1
inactive: dose: 20.0 mg/kg/injection, schedule: Q04DX003 (ip), vehicle: Klucel (hydroxypropylcellulose) (HPC) 97 % of control | dose: 40.0 mg/kg/injection, schedule: Q04DX003 (ip), vehicle: Klucel (hydroxypropylcellulose) (HPC) 98 % of control | dose: 80.0 mg/kg/injection, schedule: Q04DX003 (ip), vehicle: Klucel (hydroxypropylcellulose) (HPC) 90 % of control | dose: 100.0 mg/kg/injection, schedule: Q04DX003 (ip), vehicle: Klucel (hydroxypropylcellulose) (HPC) 106 % of control | dose: 200.0 mg/kg/injection, schedule: Q04DX003 (ip), vehicle: Klucel (hydroxypropylcellulose) (HPC) 91 % of control

COc1ccc2c(OC)cccc2c1
inactive: dose: 100.0 mg/kg/injection, schedule: Q01DX009 (ip), vehicle: other 87 % of control | dose: 200.0 mg/kg/injection, schedule: Q01DX009 (ip), vehicle: other 91 % of control | dose: 400.0 mg/kg/injection, schedule: Q01DX009 (ip), vehicle: other 91 % of control

Nc1cccc2ncccc12
inactive: [4] 104 % of control | [5] 101 % of control | [6] 103 % of control

c1ccc2c(c1)C(=NN=C1c3ccccc3-c3ccccc31)c1ccccc1-2
inactive: dose: 100.0 mg/kg/injection, schedule: Q01DX001 (ip), vehicle: carboxymethylcellulose (CMC) 97 % of control | dose: 100.0 mg/kg/injection, schedule: Q01DX009 (ip), vehicle: Klucel (hydroxypropylcellulose) (HPC) 93 % of control | dose: 200.0 mg/kg/injection, schedule: Q01DX001 (ip), vehicle: carboxymethylcellulose (CMC) 94 % of control | dose: 200.0 mg/kg/injection, schedule: Q01DX009 (ip), vehicle: Klucel (hydroxypropylcellulose) (HPC) 104 % of control | dose: 400.0 mg/kg/injection, schedule: Q01DX001 (ip), vehicle: carboxymethylcellulose (CMC) 94 % of control | dose: 400.0 mg/kg/injection, schedule: Q01DX009 (ip), vehicle: Klucel (hydroxypropylcellulose) (HPC) 96 % of control

N#C/C(=C(/C#N)c1ccccc1)c1ccccc1
inactive: [3] 95 % of control | dose: 200.0 mg/kg/injection, schedule: Q01DX001 (ip), vehicle: saline with Tween-80 93 % of control | dose: 400.0 mg/kg/injection, schedule: Q01DX001 (ip), vehicle: saline with Tween-80 91 % of control

Cc1cc([N+](=O)[O-])sc1[N+](=O)[O-]
inactive: dose: 25.0 mg/kg/injection, schedule: Q01DX009 (ip), vehicle: saline 108 % of control | [7] 97 % of control | [8] 110 % of control | [4] 101 % of control

Nc1nc2[nH]cnc(=S)c2[nH]1
inactive: [9] 101 % of control

Clc1ccc2nnnn2n1
inactive: dose: 12.5 mg/kg/injection, schedule: Q01DX009 (ip), vehicle: saline with Tween-80 97 % of control | dose: 25.0 mg/kg/injection, schedule: Q01DX009 (ip), vehicle: saline with Tween-80 100 % of control | dose: 50.0 mg/kg/injection, schedule: Q01DX009 (ip), vehicle: saline with Tween-80 110 % of control | dose: 62.5 mg/kg/injection, schedule: Q04DX003 (ip), vehicle: saline 109 % of control | dose: 100.0 mg/kg/injection, schedule: Q04DX002 (ip), vehicle: Klucel (hydroxypropylcellulose) (HPC) 115 % of control | dose: 125.0 mg/kg/injection, schedule: Q04DX003 (ip), vehicle: saline 109 % of control | dose: 200.0 mg/kg/injection, schedule: Q04DX002 (ip), vehicle: Klucel (hydroxypropylcellulose) (HPC) 115 % of control | dose: 400.0 mg/kg/injection, schedule: Q04DX002 (ip), vehicle: Klucel (hydroxypropylcellulose) (HPC) 112 % of control

CCN(CC)CCOC(=O)c1[nH]cnc1/N=N\N(C)C
inactive: dose: 100.0 mg/kg/injection, schedule: Q01DX001 (ip), vehicle: saline 104 % of control | dose: 200.0 mg/kg/injection, schedule: Q01DX001 (ip), vehicle: saline 98 % of control

O=C(Nc1ccc(NC(=O)Nc2cc(C3=NCCN3)cc(C3=NCCN3)c2)cc1)Nc1cc(C2=NCCN2)cc(C2=NCCN2)c1
inactive: dose: 15.0 mg/kg/injection, schedule: Q01DX Z (ip), vehicle: saline 90 % of control

COc1ccc(-c2c(O)c3cccc(-c4ccccc4)c3oc2=O)cc1
inactive: dose: 25.0 mg/kg/injection, schedule: Q04DX003 (ip), vehicle: saline with Tween-80 116 % of control | dose: 50.0 mg/kg/injection, schedule: Q04DX003 (ip), vehicle: saline with Tween-80 96 % of control | [1] 101 % of control | [4] 95 % of control | [5] 93 % of control

O=C(O)c1ccc(CNCc2ccccc2)cc1
inactive: [9] 102 % of control | dose: 150.0 mg/kg/injection, schedule: Q01DX001 (ip), vehicle: saline 96 % of control

C#CCOCC1CNC(=S)O1 (stereo not drawn)
inactive: dose: 100.0 mg/kg/injection, schedule: Q01DX009 (ip), vehicle: saline with Tween-80 100 % of control | [1] 95 % of control | dose: 200.0 mg/kg/injection, schedule: Q01DX009 (ip), vehicle: saline with Tween-80 98 % of control | [2] 111 % of control | dose: 400.0 mg/kg/injection, schedule: Q01DX009 (ip), vehicle: saline with Tween-80 96 % of control | dose: 400.0 mg/kg/injection, schedule: Q04DX003 (ip), vehicle: saline with Tween-80 97 % of control

CN(C)CC(=O)c1ccc(Cl)cc1
inactive: [7] 87 % of control | [8] 102 % of control

CCOC(=O)CNC(=O)C(O)C(O)C(O)C(O)CO (stereo not drawn)
inactive: [4] 102 % of control | [5] 97 % of control | [6] 91 % of control

CC(=O)OC1CCC(NC(=O)NCCF)CC1 (stereo not drawn)
inactive: dose: 100.0 mg/kg/injection, schedule: Q01DX001 (ip), vehicle: other 98 % of control | dose: 200.0 mg/kg/injection, schedule: Q01DX001 (ip), vehicle: other 104 % of control | dose: 400.0 mg/kg/injection, schedule: Q01DX001 (ip), vehicle: other 115 % of control

COc1ccc(/C=N/NC(=O)c2ccc(N)cc2)c(OC)c1
inactive: dose: 100.0 mg/kg/injection, schedule: Q04DX002 (ip), vehicle: saline 101 % of control | dose: 200.0 mg/kg/injection, schedule: Q04DX002 (ip), vehicle: saline 108 % of control | dose: 400.0 mg/kg/injection, schedule: Q04DX002 (ip), vehicle: saline 97 % of control

N=c1cc(-c2ccc(Cl)cc2)ss1
inactive: [7] 91 % of control | [8] 97 % of control | [4] 100 % of control | dose: 200.0 mg/kg/injection, schedule: Q01DX009 (ip), vehicle: saline 91 % of control | [5] 92 % of control

From PubChem BioAssay AID248 (DTP/NCI, 2004)
